Earlier results as cited in publication PMC1976805, “Preclinical pharmacokinetics of benznidazole” (British Journal of Cancer, 1984).
Read-outs that look alike come from different tables or passages of the source.

Columns and labels:
[1] = mice; ref Workman, 1980b and 1983; cited from earlier work
[2] = EMT6 flank tumours; ref Workman, 1980b and 1983; cited from earlier work
[3] = ref Workman, 1980b and 1983, cited from earlier work
[4] = sheep; ref Miller, personal communication; cited from earlier work
plasma proteins = details: ref Workman, 1980b and 1983; cited from earlier work
[5] = mice; ref Workman, 1980b and 1983; cited from earlier work; remark: listed apart in the source
[6] = spontaneous dog neoplasms; ref Workman, 1980b and 1983; cited from earlier work
[7] = humans; ref Workman, 1980b and 1983; cited from earlier work
[8] = large crossbred dogs; ref Workman, 1980b and 1983; cited from earlier work

**Q.** Which brain/whole plasma ratio [1] does the source give for `COCC(O)Cn1ccnc1[N+](=O)[O-]` (centres unmarked) [MISO, 1-(2-nitro-imidazol-1-yl)-3-methoxypropan-2-ol] here?
**A.** 90%

**Q.** And the “overall tissue/whole plasma ratio” value [2]?
**A.** 87%

**Q.** And the “steady-state tumour/whole plasma ratio (about)” value [2]?
**A.** about 90%

**Q.** What about the “peripheral nerve/whole plasma ratio” value ([3]; dog) of the same compound?
**A.** 82%

**Q.** And the brain/whole plasma ratio ([3]; dogs)?
**A.** 70%

**Q.** What about the “elimination t1/2” value [4] of the same compound?
**A.** 0.667 to 1 h

**Q.** What about the “appreciable plasma protein binding” value (plasma proteins) of the same compound?
**A.** does not occur

**Q.** And the “elimination t1/2” value [5]?
**A.** 0.333 to 0.667 h

**Q.** And the tissue/whole plasma ratio [6]?
**A.** 61%

**Q.** What about the “usual average t1/2” value [7] of the same compound?
**A.** 10 to 12 h

**Q.** And the “elimination t1/2” value [8]?
**A.** 4 to 5 h
